Where two headings read alike, the source gives them in different places.
Tests used:
[1] = target: CKD9/Cyclin H (Homo sapiens, UniProt P50750); experiment: Biochemical profile against CDKs and binding partners (Table 3)
Protocol: A series of test compounds were selected for initial screening against CDK isoforms. Protein kinase assays were performed with gold standard radioisotope-based assay formats to measuring enzyme activity remaining in presence and absence of inhibitor.

[2] = test system: BT-549; experiment: Cell viability in breast cancer cell lines; assay type: cell-based; conditions: Homo sapiens; BT-549 (Mesenchymal), 72 hours; read-out: CTG and Alamar Blue Assay IC50
Source text: (§1) Tables 5 and 6 show assessment of in vitro efficacy of I-3 in a panel of breast cancer cell lines.

[3] = test system: MDA-MB-231; experiment: Cell viability in breast cancer cell lines; assay type: cell-based; conditions: Homo sapiens; MDA-MB-231 (Mesenchymal-like), 72 hours; read-out: CTG and Alamar Blue Assay IC50
Source text: as §1

[4] = test system: MDA-MB-468; experiment: Cell viability in breast cancer cell lines; assay type: cell-based; conditions: Homo sapiens
Source text: as §1

[5] = test system: T47D; experiment: Cell viability in breast cancer cell lines; assay type: cell-based; conditions: Homo sapiens; T47D (Ductal carcinoma), 72 hours; read-out: CTG and Alamar Blue Assay IC50
Source text: as §1

[6] = test system: MCF-10A; experiment: Cell viability in breast cell lines; assay type: cell-based; conditions: Homo sapiens, 72 hours
Source text: as §1

[7] = test system: caspase 3/7 in PLC/PRF/5 cells; experiment: Caspase Glo 3/7 activity assay in PLC/PRF/5 cells; assay type: cell-based
[8] = Absolute bioavailability / PK after IV and PO dosing in CD-1 male mice; assay type: in vivo; conditions: for Vd / AUC(0-t) / Tmax: male
Protocol: Absolute bioavailability of I-3 was assessed after IV and PO dosing in CD-1 male mice. Mean plasma concentration (FIG. 6) and PK parameters (Table 12) are shown. […] Plasma concentrations were observed up to 8 hours, and plasma concentrations were not observed at 24 hour time point. […] This is approximately 50% of the hepatic blood flow ([…]) in mice.

[9] = test system: MDA-MB-231 breast cancer xenograft; experiment: Anti-tumor efficacy in MDA-MB-231 breast cancer xenograft model; assay type: in vivo, mice; conditions: p<0.0001
Protocol: (§2) Anti-tumor efficacy of I-3 was evaluated in a MDA-MB-231 breast cancer xenograft model. Briefly, mice with MDA-MB-231 tumors were randomized to three treatment groups: control (Vehicle, n=8), 1-3 IV (10 mg/kg, n=8) and 1-3 PO (10 mg/kg, n=8) on a schedule of 14 days for daily (PO) or twice weekly (IV). Oral gavage treatments were formulated in 0.1% Tween 80 and 99.9% of 0.5% (w/v) of methyl cellulose in water. Intravenous treatments were formulated in 5% (v/v) DMSO, 2.5% (v/v) absolute ethanol, 2.5% (v/v) Solutol, and 90% Normal saline. Tumor growth was measured twice weekly by using a digital vernier caliper and high resolution images of tumor bearing mice were captured using a digital camera at weekly intervals of the study (Days 0, 7 and 14). Tumor volume was calculated as follows:
Tumor Volume=[Length(L)×Width(W)^2]/2
where length (L) is the largest diameter of the tumor and width (W) is the smallest diameter of the tumor.

[10] = In vivo safety (body weight, complete blood counts) in xenograft study; design: species or system mice
Protocol: as §2, with “follows: […]” for “follows:”
At the end of the study, blood samples were collected from the animals for analysis of complete blood counts (CBC) using an automated hematology analyser (ADVIA2120, Siemens Ltd.). […] Once daily oral doses of 10 mg/Kg and twice weekly IV doses of 10 mg/kg were well-tolerated by the animals during the course of the treatment, with no changes in body weight or blood counts compared to vehicle control over the course of the study (Tables 14 and 15).

[11] = CD-1, mouse, plasma, male CD1 mice, PO 10 mg/kg

Chain of CKD9/Cyclin H (P50750 whole entry, canonical isoform): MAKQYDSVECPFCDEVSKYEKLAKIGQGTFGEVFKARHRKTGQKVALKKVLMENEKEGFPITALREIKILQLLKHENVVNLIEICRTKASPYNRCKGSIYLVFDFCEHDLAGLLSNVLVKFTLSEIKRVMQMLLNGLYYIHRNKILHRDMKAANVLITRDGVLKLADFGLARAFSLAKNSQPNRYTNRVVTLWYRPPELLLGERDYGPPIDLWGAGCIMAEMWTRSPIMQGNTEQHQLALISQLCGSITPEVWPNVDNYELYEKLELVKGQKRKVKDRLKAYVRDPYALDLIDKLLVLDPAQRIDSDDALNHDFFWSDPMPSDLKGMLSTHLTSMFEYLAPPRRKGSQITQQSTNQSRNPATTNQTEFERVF

Nc1nccc(-c2c[nH]c3nccc(Oc4cccc(F)c4)c23)n1 [I-3, 4-(4-(3-fluorophenoxy)-1H-pyrrolo[2,3-b]pyridin-3-yl)pyrimidin-2-amine]
IC50 [1]: 7 nM | IC50 [2]: 765 nM | IC50 [3]: 565 nM | IC50 ([4]; MDA-MB-468 (Basal-like 1), 72 hours, read-out: CTG and Alamar Blue Assay IC50): 276 nM | IC50 ([4]; MDA-MB-468, 72 hours, Table 6, read-out: Cell viability by CellTiter Glo IC50): 276 nM | IC50 [5]: 55500 nM | IC50 ([6]; MCF-10A (Normal breast-like), read-out: CTG and Alamar Blue Assay IC50): 2070 nM | IC50 ([6]; MCF-10A, Table 6, read-out: Cell viability by CellTiter Glo IC50): 2070 nM | Caspase 3/7 activation (comparison) [7]: greater activation of caspase 3/7 by 1-3 than by PF-06873600 | IC50 ([7]; Homo sapiens): 2450 nM | half-life ([8]; CD-1, mouse, plasma, male CD1 mice, IV 1 mg/kg): 3.4 ± 0.7 h | clearance ([8]; CD-1, mouse, plasma, male CD1 mice, IV 1 mg/kg, read-out: CLp (converted)): 41.7 mL/min/kg | AUC(0-inf) [8, 11]: 6570 ± 542 ng·h/mL | Cmax [8, 11]: 2500 ± 55.5 ng/mL | Plasma clearance ([8]; CD-1 male mice, IV): 41.7 mL/min/kg | Plasma clearance as share of hepatic blood flow (5.4 L/kg) in mice ([8]; CD-1 male mice, IV): approximately 50% | Volume of distribution compared to total body water content (0.7 L/kg) ([8]; CD-1 male mice, IV): 17 fold | Time up to which plasma concentrations were observed ([8]; CD-1 male mice, after IV administration, not observed at 24 hour): up to 8 hours | Bioavailability (% F) ([8]; male CD1 mice, PO 10 mg/kg vs IV 1 mg/kg): 147.5 ± 14.8 % F | Vd ([8]; CD-1, mouse, plasma, iv, 1 mg/kg, CD-1 male mice, IV, read-out: Volume of distribution): 12.5 L/kg | AUC(0-t) ([8]; CD-1, mouse, plasma, iv, 1 mg/kg, male CD1 mice, IV 1 mg/kg): 384 ± 98.9 ng·h/mL | Vd ([8]; CD-1, mouse, plasma, iv, 1 mg/kg, male CD1 mice, IV 1 mg/kg, read-out: Vdss): 6.8 ± 2.4 L/kg | AUC(0-t) ([8]; CD-1, mouse, plasma, po, 10 mg/kg, CD-1 male mice, PO 10 mg/kg): 5670 ng·h/mL | Tmax ([8]; CD-1, mouse, plasma, po, 10 mg/kg, CD-1 male mice, PO 10 mg/kg, read-out: Tmax (oral absorption)): 0.5 to 1 h | AUC(0-t) ([8]; CD-1, mouse, plasma, po, 10 mg/kg, male CD1 mice, PO 10 mg/kg): 5670 ± 569 ng·h/mL | Tmax ([8]; CD-1, mouse, plasma, po, 10 mg/kg, male CD1 mice, PO 10 mg/kg, read-out: Tmax): 1 ± 0.3 h | bioavailability ([8]; mouse, plasma, CD-1 male mice, PO 10 mg/kg, read-out: Oral suspension bioavailability (% F)): > 100% | tumor growth inhibition (TGI) ([9]; IV 10 mg/kg twice weekly, 14 days, vs control): 60% | tumor growth inhibition (TGI) ([9]; PO 10 mg/kg once daily, end of two weeks): 54% | Body Weight, mean ± SE ([10]; IV 10 mg/kg, Day 0): 22.1 ± 0.6 g | Body Weight, mean ± SE ([10]; IV 10 mg/kg, Day 7): 22.3 ± 1.0 g | Body Weight, mean ± SE ([10]; IV 10 mg/kg, Day 14): 22.9 ± 0.7 g | Hematocrit (Mean ± SE) ([10]; IV 10 mg/kg, end of study): 38.4 ± 3.7% | Hemoglovin (Mean ± SE) ([10]; IV 10 mg/kg, end of study): 12.8 ± 0.8 g/dL | Mean corpuscular hemoglobin (Mean ± SE) ([10]; IV 10 mg/kg, end of study): 15.2 ± 0.2 pg | Mean corpuscular hemoglobin concentration (Mean ± SE) ([10]; IV 10 mg/kg, end of study): 30.3 ± 0.2 g/dL | Mean corpuscular volume (Mean ± SE) ([10]; IV 10 mg/kg, end of study): 50.2 ± 0.3 fL | Platelets (Mean ± SE) ([10]; IV 10 mg/kg, end of study): 802.4 ± 107.9 10^3 cells/μL | Red blood cells (Mean ± SE) ([10]; IV 10 mg/kg, end of study): 8.4 ± 0.5 10^6 cells/μL | White blood cells (Mean ± SE) ([10]; IV 10 mg/kg, end of study): 22.9 ± 8.3 10^3 cells/μL | Tolerability ([10]; PO 10 mg/Kg once daily and IV 10 mg/kg twice weekly, 14 days): well-tolerated | Body Weight, mean ± SE ([10]; PO 10 mg/kg, Day 0): 21.6 ± 0.4 g | Body Weight, mean ± SE ([10]; PO 10 mg/kg, Day 7): 20.9 ± 0.9 g | Body Weight, mean ± SE ([10]; PO 10 mg/kg, Day 14): 21.6 ± 0.9 g | Hematocrit (Mean ± SE) ([10]; PO 10 mg/kg, end of study): 34.2 ± 0.9% | Hemoglovin (Mean ± SE) ([10]; PO 10 mg/kg, end of study): 10.6 ± 0.3 g/dL | Mean corpuscular hemoglobin (Mean ± SE) ([10]; PO 10 mg/kg, end of study): 15.3 ± 0.1 pg | Mean corpuscular hemoglobin concentration (Mean ± SE) ([10]; PO 10 mg/kg, end of study): 31.1 ± 0.2 g/dL | Mean corpuscular volume (Mean ± SE) ([10]; PO 10 mg/kg, end of study): 44.8 ± 4.1 fL | Platelets (Mean ± SE) ([10]; PO 10 mg/kg, end of study): 762.1 ± 99.3 10^3 cells/μL | Red blood cells (Mean ± SE) ([10]; PO 10 mg/kg, end of study): 6.9 ± 0.2 10^6 cells/μL | White blood cells (Mean ± SE) ([10]; PO 10 mg/kg, end of study): 36.6 ± 6.8 10^3 cells/μL | Complete blood counts vs control group ([10]; end of study, IV and PO 10 mg/kg): no significant differences

— US20240261297A1, “ANTI-CDK INHIBITORS FOR CANCER TREATMENT” (St. John's Cancer Institute, priority 2021, published 2024)
